Results reported in US20060069132A1, “Azolecarboxamide herbicides” (priority 2004, published 2006).

Key:
wheat = test: Test B postemergence herbicide test; assay type: in vivo, Triticum aestivum; design: key to Wheat plant response rating: 0 = no effect, 100 = complete control; conditions: postemergence
In short: (§1)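 Postemergence plants were sprayed with formulated test chemicals at 2 to 18 cm height (1- to 4-leaf stage); paddy species were grown to the 2-leaf stage. After 13 to 15 days in a greenhouse, injury was rated visually against untreated controls on a 0–100 scale (0 = no effect, 100 = complete control).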

blackgrass = test: Test B postemergence herbicide test; assay type: in vivo, Alopecurus myosuroides; conditions: postemergence
In short: (§2)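 Greenhouse test; postemergence application to plants at 1–4 leaves (2–18 cm); paddy species at 2 leaves; evaluated visually vs controls at 13–15 days; scale 0–100 (100 = complete control).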

wild oat = test: Test B postemergence herbicide test; assay type: in vivo, Avena fatua; conditions: postemergence
In short: as §1

morningglory = test: Test B pre-/postemergence herbicide test; assay type: in vivo, Ipomoea coccinea; conditions: for Plant response rating (0 to 100 scale), Morningglory: 0 is no effect; for Plant response rating (0 to 100 scale), Morningglory / Plant response rating, Morningglory: preemergence; for Morningglory plant response rating: postemergence; for Plant response rating, Morningglory: 0 = no effect, 100 = complete control
In short: (§3)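 Greenhouse pot assay with simultaneous preemergence (treated seed) and postemergence (2–18 cm seedlings) applications of surfactant-containing, non-phytotoxic solvent formulations. Response scored visually 13–15 days later on a 0–100 scale, 100 meaning complete control.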

large crabgrass = test: Test B pre-/postemergence herbicide test; assay type: in vivo, Digitaria sanguinalis; conditions: for Plant response rating (0 to 100 scale), Crabgrass, Large: 0 is no effect; for Plant response rating (0 to 100 scale), Crabgrass, Large / Plant response rating, Crabgrass, Large: preemergence; for Crabgrass, Large plant response rating: postemergence; for Plant response rating, Crabgrass, Large: 0 = no effect, 100 = complete control
In short: (§4)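 Evaluation is visual, comparing treated with control plants on a scale where 0 means no effect and 100 means full control. Treatments were preemergence, or postemergence on seedlings 2–18 cm tall, and held 13–15 days in the greenhouse.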

barnyardgrass = test: Test B pre-/postemergence herbicide test; assay type: in vivo, Echinochloa crus-galli; conditions: for Plant response rating (0 to 100 scale), Barnyardgrass: 0 is no effect; for Plant response rating (0 to 100 scale), Barnyardgrass / Plant response rating, Barnyardgrass: preemergence; for Barnyardgrass plant response rating: postemergence; for Plant response rating, Barnyardgrass: 0 = no effect, 100 = complete control
In short: as §3

pigweed = test: Test B pre-/postemergence herbicide test; assay type: in vivo, Amaranthus retroflexus; conditions: for Plant response rating (0 to 100 scale), Pigweed: 0 is no effect; for Plant response rating (0 to 100 scale), Pigweed / Plant response rating, Pigweed: preemergence; for Pigweed plant response rating: postemergence; for Plant response rating, Pigweed: 0 = no effect, 100 = complete control
In short: as §4

Surinam grass = test: Test B pre-/postemergence herbicide test; assay type: in vivo, Urochloa decumbens; conditions: for Plant response rating (0 to 100 scale), Surinam Grass: 0 is no effect; for Plant response rating (0 to 100 scale), Surinam Grass / Plant response rating, Surinam Grass: preemergence; for Surinam Grass plant response rating: postemergence; for Plant response rating, Surinam Grass: 0 = no effect, 100 = complete control
In short: as §4

corn = test: Test B pre-/postemergence herbicide test; assay type: in vivo, Zea mays; conditions: for Plant response rating (0 to 100 scale), Corn: 0 is no effect; for Plant response rating (0 to 100 scale), Corn / Plant response rating, Corn: preemergence; for Corn plant response rating: postemergence; for Plant response rating, Corn: 0 = no effect, 100 = complete control
In short: as §4

cocklebur = test: Test B pre-/postemergence herbicide test; assay type: in vivo, Xanthium strumarium; conditions: for Plant response rating (0 to 100 scale), Cocklebur: 0 is no effect; for Plant response rating (0 to 100 scale), Cocklebur / Plant response rating, Cocklebur: preemergence; for Cocklebur plant response rating: postemergence; for Plant response rating, Cocklebur: 0 = no effect, 100 = complete control
In short: as §3

[1] = system: small flower umbrella sedge; test: Test B flooded paddy test; assay type: in vivo, Cyperus difformis; conditions: 1000 g ai/ha, scale 0 to 100 (0 no effect, 100 complete control)
In short: as §2

lambsquarters = test: Test B pre-/postemergence herbicide test; assay type: in vivo, Chenopodium album; conditions: for Plant response rating (0 to 100 scale), Lambsquarters: 0 is no effect; for Plant response rating (0 to 100 scale), Lambsquarters / Plant response rating, Lambsquarters: preemergence; for Lambsquarters plant response rating: postemergence; for Plant response rating, Lambsquarters: 0 = no effect, 100 = complete control
In short: as §4

giant foxtail = test: Test B pre-/postemergence herbicide test; assay type: in vivo, Setaria faberi; conditions: for Plant response rating (0 to 100 scale), Foxtail, Giant: 0 is no effect; for Plant response rating (0 to 100 scale), Foxtail, Giant / Plant response rating, Foxtail, Giant: preemergence; for Foxtail, Giant plant response rating: postemergence; for Plant response rating, Foxtail, Giant: 0 = no effect, 100 = complete control
In short: as §4

velvetleaf = test: Test B pre-/postemergence herbicide test; assay type: in vivo, Abutilon theophrasti; conditions: for Plant response rating (0 to 100 scale), Velvetleaf: 0 is no effect; for Velvetleaf plant response rating: postemergence
In short: as §4

[2] = 125 g ai/ha, visual rating, scale 0 (no effect) to 100 (complete control)
[3] = 500 g ai/ha, scale 0 to 100, 0 is no effect, 100 is complete control
[4] = 125 g ai/ha, 100 is complete control
[5] = 125 g ai/ha, 100 is complete control, preemergence

CCN(CC)C(=O)c1cccc(NC(=O)c2cc(C(C)(C)C)nn2C)n1 [Compound 314]
0: Wheat plant response rating (wheat; [2]) | Plant response rating (0 to 100 scale), Morningglory (morningglory; [4]) | Plant response rating (0 to 100 scale), Corn (corn; [4]) | Plant response rating (0 to 100 scale), Cocklebur (cocklebur; [4]) | Plant response rating, Cocklebur (cocklebur; 500 g ai/ha, visual rating)
80: Morningglory plant response rating (morningglory; [3]) | Plant response rating, Surinam Grass (Surinam grass; 500 g ai/ha, visual rating) | Plant response rating, Lambsquarters (lambsquarters; 500 g ai/ha, visual rating)
90: Plant response rating, Barnyardgrass (barnyardgrass; 500 g ai/ha, visual rating) | Plant response rating (0 to 100 scale), Pigweed (pigweed; [4])
20: Blackgrass plant response rating (blackgrass; [3]) | Morningglory plant response rating (morningglory; [2]) | Plant response rating, Morningglory (morningglory; 500 g ai/ha, visual rating) | Plant response rating (0 to 100 scale), Crabgrass, Large (large crabgrass; [4]) | Crabgrass, Large plant response rating (large crabgrass; [3]) | Plant response rating (0 to 100 scale), Surinam Grass (Surinam grass; [4]) | Surinam Grass plant response rating (Surinam grass; [2]) | Surinam Grass plant response rating (Surinam grass; [3]) | Corn plant response rating (corn; [3]) | Plant response rating (0 to 100 scale), Lambsquarters (lambsquarters; [4]) | Foxtail, Giant plant response rating (giant foxtail; [2]) | Foxtail, Giant plant response rating (giant foxtail; [3]) | Plant response rating (0 to 100 scale), Velvetleaf (velvetleaf; [5]) | Velvetleaf plant response rating (velvetleaf; [2])
60: Pigweed plant response rating (pigweed; [2]) | Sedge, Umbrella plant response rating [1] | Lambsquarters plant response rating (lambsquarters; [3])
30: Oat, Wild plant response rating (wild oat; [3]) | Plant response rating, Crabgrass, Large (large crabgrass; 500 g ai/ha, visual rating) | Barnyardgrass plant response rating (barnyardgrass; [3]) | Cocklebur plant response rating (cocklebur; [3]) | Lambsquarters plant response rating (lambsquarters; [2]) | Plant response rating (0 to 100 scale), Foxtail, Giant (giant foxtail; [4]) | Velvetleaf plant response rating (velvetleaf; [3])
100: Plant response rating, Pigweed (pigweed; 500 g ai/ha, visual rating) | Plant response rating, Foxtail, Giant (giant foxtail; 500 g ai/ha, visual rating) | Plant response rating, Velvetleaf (velvetleaf; 500 g ai/ha, visual rating, 0 = no effect, 100 = complete control, preemergence)
70: Pigweed plant response rating (pigweed; [3])
10: Wheat plant response rating (wheat; [3]) | Blackgrass plant response rating (blackgrass; [2]) | Oat, Wild plant response rating (wild oat; [2]) | Crabgrass, Large plant response rating (large crabgrass; [2]) | Plant response rating (0 to 100 scale), Barnyardgrass (barnyardgrass; [4]) | Barnyardgrass plant response rating (barnyardgrass; [2]) | Corn plant response rating (corn; [2]) | Plant response rating, Corn (corn; 500 g ai/ha, visual rating) | Cocklebur plant response rating (cocklebur; [2])

C=CCNC(=O)c1cccc(NC(=O)c2cc(C(C)(C)C)nn2C)n1 [Compound 318]
30: Oat, Wild plant response rating (wild oat; [3]) | Plant response rating, Morningglory (morningglory; 500 g ai/ha, visual rating)
40: Plant response rating (0 to 100 scale), Barnyardgrass (barnyardgrass; [4]) | Barnyardgrass plant response rating (barnyardgrass; [2]) | Plant response rating, Surinam Grass (Surinam grass; 500 g ai/ha, visual rating) | Velvetleaf plant response rating (velvetleaf; [2])
60: Crabgrass, Large plant response rating (large crabgrass; [3])
20: Surinam Grass plant response rating (Surinam grass; [3]) | Corn plant response rating (corn; [2]) | Corn plant response rating (corn; [3]) | Plant response rating (0 to 100 scale), Velvetleaf (velvetleaf; [5])
70: Barnyardgrass plant response rating (barnyardgrass; [3]) | Pigweed plant response rating (pigweed; [2])
90: Plant response rating, Crabgrass, Large (large crabgrass; 500 g ai/ha, visual rating) | Plant response rating, Barnyardgrass (barnyardgrass; 500 g ai/ha, visual rating) | Plant response rating (0 to 100 scale), Pigweed (pigweed; [4]) | Plant response rating (0 to 100 scale), Lambsquarters (lambsquarters; [4])
80: Morningglory plant response rating (morningglory; [3]) | Cocklebur plant response rating (cocklebur; [3]) | Sedge, Umbrella plant response rating [1] | Lambsquarters plant response rating (lambsquarters; [2]) | Lambsquarters plant response rating (lambsquarters; [3]) | Plant response rating, Foxtail, Giant (giant foxtail; 500 g ai/ha, visual rating) | Velvetleaf plant response rating (velvetleaf; [3])
0: Wheat plant response rating (wheat; [2]) | Oat, Wild plant response rating (wild oat; [2]) | Plant response rating (0 to 100 scale), Morningglory (morningglory; [4]) | Morningglory plant response rating (morningglory; [2]) | Plant response rating (0 to 100 scale), Surinam Grass (Surinam grass; [4]) | Plant response rating (0 to 100 scale), Corn (corn; [4]) | Plant response rating, Corn (corn; 500 g ai/ha, visual rating) | Plant response rating (0 to 100 scale), Cocklebur (cocklebur; [4]) | Plant response rating, Cocklebur (cocklebur; 500 g ai/ha, visual rating) | Plant response rating (0 to 100 scale), Foxtail, Giant (giant foxtail; [4])
10: Wheat plant response rating (wheat; [3]) | Blackgrass plant response rating (blackgrass; [2]) | Blackgrass plant response rating (blackgrass; [3]) | Plant response rating (0 to 100 scale), Crabgrass, Large (large crabgrass; [4]) | Crabgrass, Large plant response rating (large crabgrass; [2]) | Surinam Grass plant response rating (Surinam grass; [2]) | Cocklebur plant response rating (cocklebur; [2]) | Foxtail, Giant plant response rating (giant foxtail; [2]) | Foxtail, Giant plant response rating (giant foxtail; [3])
100: Plant response rating, Pigweed (pigweed; 500 g ai/ha, visual rating) | Pigweed plant response rating (pigweed; [3]) | Plant response rating, Lambsquarters (lambsquarters; 500 g ai/ha, visual rating)
